T/C data for 6 molecules are collected here from PubChem BioAssay AID248 (DTP/NCI, 2004).

“And” between values parts separate entries of the source, which are not always exact repeats. Identical values can stand only once. Toxic doses and inconclusive results are not listed.

This test relates to L1210 leukemia ip in BDF1 mice, survival T/C. Put plainly: NCI In Vivo Anticancer Drug Screen. Data for tumor model L1210 Leukemia (intraperitoneal) in B6D2F1 (BDF1) mice. To be noted: higher = longer survival. The gist of the method: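 Each compound was tested against a transplantable tumor grown in mice. The endpoint was survival, with treated animals benchmarked against vehicle controls as a simple ratio.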

As for `N/C(=N\O)c1cn(C2OC(CO)C(O)C2O)c2ncnc(N)c12` (configuration not stated), the T/C is, setting by setting: (endpoint: mean survival time, dose: 0.2 mg/kg/injection, schedule: Q01DX015 (ip), vehicle: carboxymethylcellulose (CMC)) 104 % of control; (endpoint: mean survival time, dose: 0.25 mg/kg/injection, schedule: Q01DX009 (ip), vehicle: saline) 117 % of control; (endpoint: mean survival time, dose: 0.25 mg/kg/injection, schedule: Q03HX024 (ip), vehicle: saline) 123 % of control; (endpoint: mean survival time, dose: 0.3 mg/kg/injection, schedule: Q01DX015 (ip), vehicle: carboxymethylcellulose (CMC)) 117 % of control; (endpoint: mean survival time, dose: 0.39 mg/kg/injection, schedule: Q01DX009 (ip), vehicle: saline) 150 % of control; (endpoint: mean survival time, dose: 0.44 mg/kg/injection, schedule: Q01DX015 (ip), vehicle: carboxymethylcellulose (CMC)) 117 % of control. Also, the T/C was 118 % of control (endpoint: mean survival time, dose: 0.5 mg/kg/injection, schedule: Q01DX005 (ip), vehicle: saline); 120 % of control (endpoint: mean survival time, dose: 0.67 mg/kg/injection, schedule: Q01DX015 (ip), vehicle: carboxymethylcellulose (CMC)); 111 % of control (endpoint: mean survival time, dose: 0.78 mg/kg/injection, schedule: Q01DX005 (ip), vehicle: saline); 150 % of control (endpoint: mean survival time, dose: 0.78 mg/kg/injection, schedule: Q01DX009 (ip), vehicle: saline); 160 % of control (endpoint: mean survival time, dose: 1.0 mg/kg/injection, schedule: Q03HX008 (ip), vehicle: saline); 192 % of control (endpoint: mean survival time, dose: 1.0 mg/kg/injection, schedule: Q03HX024 (ip), vehicle: saline). Also, the T/C reads like this: (endpoint: mean survival time, dose: 1.3 mg/kg/injection, schedule: Q01DX009 (ip), vehicle: saline) 159 % of control; (endpoint: mean survival time, dose: 1.56 mg/kg/injection, schedule: Q01DX005 (ip), vehicle: saline) 110 % of control; (endpoint: mean survival time, dose: 1.56 mg/kg/injection, schedule: Q01DX009 (ip), vehicle: saline) 204 % of control; (endpoint: mean survival time, dose: 2.0 mg/kg/injection, schedule: Q01DX009 (ip), vehicle: saline) 158 % of control; (endpoint: mean survival time, dose: 2.0 mg/kg/injection, schedule: Q03HX024 (ip), vehicle: saline) 102 % of control and 107 % of control; (endpoint: mean survival time, dose: 3.0 mg/kg/injection, schedule: Q01DX009 (ip), vehicle: saline) 151 % of control. For the same molecule, the T/C is 121 % of control (endpoint: mean survival time, dose: 3.12 mg/kg/injection, schedule: Q01DX001 (ip), vehicle: other); 156 % of control (endpoint: mean survival time, dose: 3.12 mg/kg/injection, schedule: Q01DX005 (ip), vehicle: saline); 109 % of control (endpoint: mean survival time, dose: 3.12 mg/kg/injection, schedule: Q01DX009 (ip), vehicle: saline); 121 % of control (endpoint: mean survival time, dose: 3.13 mg/kg/injection, schedule: Q01DX001 (ip), vehicle: water); 117 % of control (endpoint: mean survival time, dose: 4.0 mg/kg/injection, schedule: Q01DX001 (ip), vehicle: saline); 152 % of control (endpoint: mean survival time, dose: 4.0 mg/kg/injection, schedule: Q01DX005 (ip), vehicle: saline). The T/C is 153 % of control and 180 % of control (endpoint: mean survival time, dose: 4.0 mg/kg/injection, schedule: Q01DX009 (ip), vehicle: saline); 96 % of control (endpoint: mean survival time, dose: 4.0 mg/kg/injection, schedule: Q01DX009 (oral), vehicle: saline); 122 % of control (endpoint: mean survival time, dose: 4.0 mg/kg/injection, schedule: Q08DX002 (ip), vehicle: saline); 124 % of control (endpoint: mean survival time, dose: 4.4 mg/kg/injection, schedule: Q01DX001 (ip), vehicle: carboxymethylcellulose (CMC)); 124 % of control (endpoint: mean survival time, dose: 5.0 mg/kg/injection, schedule: Q01DX001 (ip), vehicle: carboxymethylcellulose (CMC)); 158 % of control (endpoint: mean survival time, dose: 5.0 mg/kg/injection, schedule: Q01DX009 (ip), vehicle: saline). The T/C reads like this: (endpoint: mean survival time, dose: 5.0 mg/kg/injection, schedule: Q01DX015 (ip), vehicle: carboxymethylcellulose (CMC)) 108 % of control; (endpoint: mean survival time, dose: 6.25 mg/kg/injection, schedule: Q01DX001 (ip), vehicle: other) 122 % of control; (endpoint: mean survival time, dose: 6.25 mg/kg/injection, schedule: Q01DX001 (ip), vehicle: water) 114 % of control; (endpoint: mean survival time, dose: 6.25 mg/kg/injection, schedule: Q01DX009 (ip), vehicle: saline) 113 % of control; (endpoint: mean survival time, dose: 8.0 mg/kg/injection, schedule: Q01DX001 (ip), vehicle: saline) 124 % of control; (endpoint: mean survival time, dose: 8.0 mg/kg/injection, schedule: Q01DX005 (ip), vehicle: saline) 150 % of control. Also, the T/C is, setting by setting: (endpoint: mean survival time, dose: 8.0 mg/kg/injection, schedule: Q01DX009 (ip), vehicle: saline) 119 % of control and 121 % of control; (endpoint: mean survival time, dose: 8.0 mg/kg/injection, schedule: Q01DX009 (oral), vehicle: saline) 95 % of control; (endpoint: mean survival time, dose: 8.0 mg/kg/injection, schedule: Q04DX003 (ip), vehicle: saline) 151 % of control and 156 % of control; (endpoint: mean survival time, dose: 16.0 mg/kg/injection, schedule: Q01DX001 (ip), vehicle: saline) 119 % of control; (endpoint: mean survival time, dose: 16.0 mg/kg/injection, schedule: Q01DX001 (oral), vehicle: saline) 94 % of control; (endpoint: mean survival time, dose: 16.0 mg/kg/injection, schedule: Q01DX009 (oral), vehicle: saline) 95 % of control. Also, the T/C is 186 % of control (endpoint: mean survival time, dose: 16.0 mg/kg/injection, schedule: Q04DX003 (ip), vehicle: saline); 151 % of control (endpoint: mean survival time, dose: 22.5 mg/kg/injection, schedule: Q01DX001 (ip), vehicle: saline); 157 % of control (endpoint: mean survival time, dose: 25.0 mg/kg/injection, schedule: Q01DX001 (ip), vehicle: other); 152 % of control (endpoint: mean survival time, dose: 25.0 mg/kg/injection, schedule: Q01DX001 (ip), vehicle: water); 97 % of control (endpoint: mean survival time, dose: 32.0 mg/kg/injection, schedule: Q01DX001 (oral), vehicle: saline); 94 % of control (endpoint: mean survival time, dose: 32.0 mg/kg/injection, schedule: Q01DX009 (oral), vehicle: saline). For the same molecule, the T/C is, setting by setting: (endpoint: mean survival time, dose: 32.0 mg/kg/injection, schedule: Q08DX002 (ip), vehicle: saline) 154 % of control; (endpoint: mean survival time, dose: 50.0 mg/kg/injection, schedule: Q01DX001 (ip), vehicle: other) 150 % of control; (endpoint: mean survival time, dose: 50.0 mg/kg/injection, schedule: Q01DX001 (ip), vehicle: water) 159 % of control; (endpoint: mean survival time, dose: 64.0 mg/kg/injection, schedule: Q01DX001 (oral), vehicle: saline) 94 % of control; (endpoint: mean survival time, dose: 128.0 mg/kg/injection, schedule: Q01DX001 (oral), vehicle: saline) 90 % of control; (endpoint: median survival time, dose: 0.5 mg/kg/injection, schedule: Q01DX009 (ip), vehicle: saline) 118 % of control and 122 % of control. Also, the T/C (endpoint: median survival time, dose: 1.0 mg/kg/injection, schedule: Q01DX009 (ip), vehicle: saline) was 122 % of control.
Consider `O=C1CCCCC1C(O)(C(=O)c1ccccc1)c1ccccc1` (configuration not stated) (tested in a mixture with another compound), for which the T/C was 97 % of control (endpoint: mean survival time, dose: 50.0 mg/kg/injection, schedule: Q01DX009 (ip), vehicle: saline with Tween-80); 87 % of control (endpoint: mean survival time, dose: 100.0 mg/kg/injection, schedule: Q01DX009 (ip), vehicle: saline with Tween-80); 91 % of control (endpoint: mean survival time, dose: 200.0 mg/kg/injection, schedule: Q01DX009 (ip), vehicle: saline with Tween-80).
Turning to `CC(C)N(N=O)C(C)C`, the T/C by setting is: (endpoint: mean survival time, dose: 50.0 mg/kg/injection, schedule: Q01DX001 (ip), vehicle: saline) 104 % of control; (endpoint: mean survival time, dose: 100.0 mg/kg/injection, schedule: Q01DX001 (ip), vehicle: saline) 104 % of control; (endpoint: mean survival time, dose: 200.0 mg/kg/injection, schedule: Q01DX001 (ip), vehicle: saline) 102 % of control; (endpoint: mean survival time, dose: 400.0 mg/kg/injection, schedule: Q01DX001 (ip), vehicle: saline) 98 % of control.
For `CSC1SCCCS1`, the T/C runs as follows: (endpoint: mean survival time, dose: 12.5 mg/kg/injection, schedule: Q04DX002 (ip), vehicle: saline with Tween-80) 92 % of control; (endpoint: mean survival time, dose: 25.0 mg/kg/injection, schedule: Q04DX002 (ip), vehicle: saline with Tween-80) 98 % of control; (endpoint: mean survival time, dose: 50.0 mg/kg/injection, schedule: Q04DX002 (ip), vehicle: saline with Tween-80) 88 % of control.
For `CSCCCNC(=O)c1csc(CCNC(=O)c2ccccc2)n1`, the T/C is, setting by setting: (endpoint: mean survival time, dose: 100.0 mg/kg/injection, schedule: Q04DX003 (ip), vehicle: saline with Tween-80) 100 % of control; (endpoint: mean survival time, dose: 200.0 mg/kg/injection, schedule: Q04DX003 (ip), vehicle: saline with Tween-80) 100 % of control; (endpoint: mean survival time, dose: 400.0 mg/kg/injection, schedule: Q04DX003 (ip), vehicle: saline with Tween-80) 91 % of control.
For the molecule `Cc1ccc(NC2=C(Cl)C(=O)C(Nc3ccc(C)cc3)=C(Cl)C2=O)cc1`, the T/C by setting is: (endpoint: mean survival time, dose: 50.0 mg/kg/injection, schedule: Q01DX001 (ip), vehicle: carboxymethylcellulose (CMC)) 97 % of control; (endpoint: mean survival time, dose: 100.0 mg/kg/injection, schedule: Q01DX001 (ip), vehicle: carboxymethylcellulose (CMC)) 95 % of control; (endpoint: mean survival time, dose: 200.0 mg/kg/injection, schedule: Q01DX001 (ip), vehicle: carboxymethylcellulose (CMC)) 90 % of control; (endpoint: mean survival time, dose: 400.0 mg/kg/injection, schedule: Q01DX001 (ip), vehicle: carboxymethylcellulose (CMC)) 92 % of control.
